We go through four compounds from paper PMC9964651, “Discovery of Ureido-Based Apcin Analogues as Cdc20-specific Inhibitors against Cancer” (Pharmaceuticals, 2023).

Where two headings read alike, the source gives them in different places.

For assay [1], the system named is Hepg2. More on the design: method as in PMID 32290657. The following applies: previous studies; read-out: IC50 ± SD Hepg2; cited from earlier work.
Assay [2] concerns Hela. Set-up: method as in PMID 32290657. Particulars: previous studies; read-out: IC50 ± SD Hela; cited from earlier work.
Assay [3] relates to Mcf-7. More on the design: method as in PMID 32290657. Particulars: previous studies; read-out: IC50 ± SD Mcf-7; cited from earlier work.
Another assay relates to four cancer-cell lines. Briefly: In vitro antiproliferative assay (CCK-8), cell line not given. Particulars: Homo sapiens, read-out: IC50 (antiproliferative activity).
For a further assay, the system named is Mda-mb-231. The assay can be described thus: In vitro antiproliferative assay (CCK-8). Particulars: Homo sapiens, MDA-MB-231, 48 h, read-out: IC50 ± SD Mda-mb-231.
Assay [4] concerns Hela cells. Briefly: Cell-cycle assay (flow cytometry, propidium iodide). Particulars: 24 h; for number of cells in the mitotic G2/M phase: in words. The assay is classed as cell-based, human. The method, then:
Then, the preset drug concentration was added and incubated for 24 h. Cells were collected by centrifugation and were fixed overnight with pre-cooled ethanol (70%) and washed twice with buffer, propidium-iodide staining solution was added (0.5 mL/well), and they were incubated at 37 °C for 30 min in the dark for flow detection.
(In general: In flow cytometry, cells or beads pass a laser one at a time.)

Assay [5] concerns Mcf-7. Briefly: In vitro antiproliferative assay (CCK-8). The following applies: Homo sapiens, MCF7, 48 h, read-out: IC50 ± SD Mcf-7.
Protocol: (§1) Hela and MDA-MB-132 cells were grown in DMEM (Gibco) containing 10% FBS and 1% double antibody (penicillin 100 U/mL, streptomycin 100 μg/mL, Solarbio). […] All cell lines were purchased from the Xiangya Cell Bank, Central South University, Changsha, China, and incubated at 37 °C with 5% CO2 in a humidified atmosphere. […] Cytotoxicity assay was assessed using CCK-8 methods. The cells were seeded in a 96-well plate (2 × 10^3–3 × 10^3 cells/well), the 96-well plate was incubated at 37 °C with 5% CO2 in a humidified atmosphere, and the cells were grown in a monolayer; the original culture was discarded. A total of 100 μL of drug-containing medium with a specific concentration gradient was added and then cultivated for 48 h; 10 μL/well of CCK-8 solution was added, put in an incubator, and incubated for 1 h and read with a multi-function microplate reader at a wavelength of 450 nm. The inhibition rate was calculated, and the IC50 results were calculated by GraphPad Prism 7 software. The experiment was repeated three times.
Assay [6] concerns Hepg2. The assay can be described thus: In vitro antiproliferative assay (CCK-8). Particulars: Homo sapiens, HepG2, 48 h, read-out: IC50 ± SD Hepg2.
Protocol: as §1
In assay [7] the test system is tubulin. The assay can be described thus: Tubulin polymerization assay in vitro. The assay is classed as biochemical. Particulars: cell-free, purified tubulin, 37 °C, absorbance 340 nm. The method, then: We used an HTS-Tubulin Polymerization Assay Kit (BK004P, Cytoskeleton, USA) to assess the inhibitory effect of compounds on tubulin polymerization. Tubulin solution was prepared, and the compound solution and paclitaxel solution were tested according to the instructions of the kit. General tubulin buffer, paclitaxel solution, and 10× test compound solution were added to a 96-well plate (10 μL/well) and incubated at 37 °C for two minutes. A total of 100 μL of tubulin solution was pipetted into the corresponding wells. The plate was immediately placed on a multi-function microplate reader at 37 °C, and the continuous kinetic values were recorded.
Figure 7 The effect of compound 20 and compound 27 on in vitro tubulin polymerization was tested. Polymerization of purified tubulin was performed in a cell-free assay. Tubulin protein was incubated at 37 °C in a reaction buffer exposed to vehicle control or test compounds at the indicated concentrations. Absorbance at 340 nm was monitored at 37 °C every 30 s for 1 h.

Assay [8] deals with Cdc20 and downstream substrates (cyclin B1, securin, Bim, cleaved PARP) in Hela cells. The assay can be described thus: Western blot of Cdc20 and Cdc20 downstream proteins. In kind it is cell-based, human. Particulars: for Cdc20 protein level: 12 h after addition. The method, then: The lysate for extracting cellular proteins was prepared with bromophenol blue (0.02%), dithiothreitol (DTT; 0.5M), glycerol (30%), sodium dodecyl sulfate (SDS; 10%) and Tris-Cl (0.25M, pH 6.8). Protein extracts were separated according to molecular weight by the polyacrylamide gel electrophoresis (PAGE) method and then transferred to solid-phase support (PVDF membrane). The PVDF membrane was placed in a blocking solution containing 5% skim milk for 2 h, followed by incubation with primary and secondary antibodies, and the bands were detected and imaged in the ChemiDocTMXRS+ imaging system.
Figure 1 (A) Expression levels of Cdc20 protein in different cell lines. (B) Cdc20 levels were measured by Western blot 12 h after the addition of compounds. The reproducibility of the results was confirmed by at least two separate experiments. (a) Quantitative results of (A) compared to Hela. (b) Quantitative results of (B) compared to control. Statistical significance was calculated by two-tailed unpaired t test.
Figure 4 (A) Protein levels of cyclin B1 and securin were measured by Western blot. (B) Protein levels of Bim were measured by Western blot. (C) Protein levels of cleaved PARP were measured by Western blot. […] (a–d) Quantitative results of (A–C) compared to control. Statistical significance was calculated by two-tailed unpaired t test (* p < 0.05, ** p < 0.01, *** p < 0.001).

Assay [9] has as its system Hela. The assay can be described thus: In vitro antiproliferative assay (CCK-8). In kind it is cell-based, human. Particulars: Homo sapiens, HeLa; CCK-8, 48 h, mean ± SD. From the text: The experiment was repeated three times.
Assay [10] concerns the target recombinant human Cdc20 protein (Homo sapiens, UniProt Q12834). The assay can be described thus: Surface plasmon resonance (SPR) assay. In kind it is binding. The method, then:
Surface plasmon resonance (SPR) analysis can measure the interaction process between various biomolecules, such as polypeptides, proteins, oligonucleotides, and oligosaccharides, as well as viruses, bacteria, cells, and small molecular compounds. First, we installed the COOH chip according to the standard operating procedure of the OpenSPRTM instrument and started running it at the maximum flow rate (150 μL/min). The detection buffer was PBS, and after reaching the signal baseline, 200 μL of isopropanol were loaded and the air was removed by running for 10 s. After reaching baseline, the sample loop was flushed with buffer and evacuated with air, and after the signal reached baseline, the buffer flow rate was adjusted to 20 μL/min. A total of 200 μL of EDC/NHS (1:1) solution (20 μL/min, 4 min), 200 μL EDC/NHS (1:1) solution (20 μL/min, 4 min), and 200 μL recombinant human Cdc20 protein buffer was loaded and run for 4 min (20 μL/min), and the sample loop was rinsed with buffer and drained with null air. A total of 200 μL of blocking solution was loaded (20 μL/min, 4 min), and the sample loop was flushed with buffer and evacuated with air. After the baseline was stable, the analyte was diluted with buffer and loaded at 20 μL/min. The binding time of the analyte and the ligand was 240 s, and the natural dissociation time was 480 s. The analysis software used for the experimental results was TraceDrawer (Ridgeview Instruments ab, Sweden), and the analysis method was the one-to-one analysis model.
Molecules were tested in a dilution series starting at 500 μM. The analyte was diluted with buffer and loaded at 20 μL/min. The binding time of the analyte and the ligand was 240 s, and the natural dissociation time was 480 s. The analysis software used for the experimental results was TraceDrawer (Ridgeview Instruments AB, Sweden), and the analysis method was the one-to-one analysis model.
On the technique in general: In SPR one partner is held on a chip, and binding of the other changes the refractive index at the surface.

Assay [11] has as its system Hela cells. The assay can be described thus: Annexin V-FITC/PI double-staining cell-apoptosis assay. The assay is classed as cell-based, human. The following applies: 24 h, in words. The method, then:
Then, the preset drug concentration was added and incubated for 24 h. Cells were collected by centrifugation, resuspended in buffer, and then stained by adding Annexin V-FITC (5 μL) and PI Staining Solution (5 μL) and incubated at room temperature for 10 min. The samples were detected by flow cytometry within 1 h after staining. Flow cytometer (Beckman Coulter Cytofex) was used for subsequent detection, and the data were processed with FlowJo software.

Assay [12] has as its system tubulin. More on the design: method as in PMID 32290657. The following applies: previous research of the authors; cited from earlier work.

Sequence of recombinant human Cdc20 protein (Q12834 whole entry): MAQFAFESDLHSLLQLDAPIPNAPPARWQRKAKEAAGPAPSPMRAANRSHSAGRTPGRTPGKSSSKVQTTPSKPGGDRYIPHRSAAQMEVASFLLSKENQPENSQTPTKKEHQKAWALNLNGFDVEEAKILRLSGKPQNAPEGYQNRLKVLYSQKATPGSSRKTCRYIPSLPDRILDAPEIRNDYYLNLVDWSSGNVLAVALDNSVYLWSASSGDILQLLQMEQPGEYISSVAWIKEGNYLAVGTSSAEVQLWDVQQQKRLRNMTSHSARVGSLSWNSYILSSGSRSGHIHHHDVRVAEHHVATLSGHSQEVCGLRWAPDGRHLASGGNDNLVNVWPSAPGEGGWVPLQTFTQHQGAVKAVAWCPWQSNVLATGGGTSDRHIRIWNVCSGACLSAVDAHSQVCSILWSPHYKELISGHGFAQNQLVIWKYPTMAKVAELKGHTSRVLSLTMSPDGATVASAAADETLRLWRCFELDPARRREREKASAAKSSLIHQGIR
Protocol for Mda-mb-231: as §1
Protocol for four cancer-cell lines: as §1

Take `Cc1ncc([N+](=O)[O-])n1CCOC(=O)N[C@H](Nc1c(Cl)nc(N)nc1Cl)C(Cl)(Cl)Cl` [Compound 7d]: the figures for the IC50 with Hepg2 [1], in the assay on Hela [2] and in the assay with Mcf-7 [3] were 25.6 ± 6.1 µM, 63.2 ± 0.9 µM and 160 ± 5 µM, respectively.

Take `Nc1c(Cl)nc(NC(NC(=O)NCCc2ccccc2)C(Cl)(Cl)Cl)nc1Cl` (centres unmarked) [Compound 20, 1-(1-((5-amino-4,6-dichloropyrimidin-2-yl)amino)-2,2,2-trichloroethyl)-3-phenethylurea]: in the assay with four cancer-cell lines, the concentration for half-maximal inhibition (IC50) – broadly, the point on the concentration scale where inhibition reaches its midpoint – is less than 40 µM. In the assay with Mda-mb-231, the IC50 is 30.4 ± 13 µM. In addition, the “P4 gate (cells in the G2/M phase)” value in the assay with Hela cells [4] (40μm) came to 41.09%. Besides, the “number of cells in the mitotic G2/M phase” value in the assay on Hela cells [4] is “significant increase”. In addition, the 50% inhibitory concentration (IC50) with Mcf-7 [5] is 35 ± 3.06 µM. For the same compound, the half-maximal inhibitory concentration (IC50) in the assay with Hepg2 [6] turned out to be 31.2 ± 8.37 µM. Further, the “effect on microtubule polymerization” value in the assay on tubulin [7] (30 μM) is listed as “slightly promoted microtubule polymerization”. For the same compound, in assay [8], the “expression of Bim” value is reported as “significantly increase”, the “expression of cleaved PARP” value is reported as “significantly increase”, the “level of cyclin B1 protein” value was “significantly increased” and the “level of securin protein” value is “significantly increased”. The Cdc20 protein level entry in assay [8] is “no effect”. In the assay with Hela [9], the IC50 stood at 24.7 ± 2.01 µM. Besides, the equilibrium dissociation constant (Kd) (in general, the equilibrium constant for the complex coming apart) in [10] (dissociation-equilibrium constant, one-to-one model) was determined as 79.6 µM. Also, the “Kd (1/S)” value in assay [10] (dissociation-rate constant, one-to-one model) was 5.78 × 10^−3 1/S. The “binding affinity to Cdc20 relative to Apcin” value in [10] (from Kd values) is reported as “about three times”. For the same compound, the apoptotic rates result in the assay on Hela cells [11] is on record as “increased in a concentration-dependent way”.

Turning to `Nc1nc(F)nc2c1ncn2C(NC(=O)NCCN1CCOCC1)C(Cl)(Cl)Cl` (centres unmarked) [Compound 27, 1-(1-(6-amino-2-fluoro-9H-purin-9-yl)-2,2,2-trichloroethyl)-3-(2-morpholinoethyl)urea], the half-maximal inhibitory concentration (IC50) in the assay with Mda-mb-231 came to 0.32 ± 0.04 µM. In addition, the “number of cells in the mitotic G2/M phase” value with Hela cells [4] is listed as “slightly reduced”. Further, the 50% inhibitory concentration (IC50) in the assay on Mcf-7 [5] was 0.27 ± 0.06 µM. In addition, the concentration for half-maximal inhibition (IC50) with Hepg2 [6] turned out to be 0.24 ± 0.11 µM. In the assay on tubulin [7] (3 μM and 30 μM), the “effect on microtubule polymerization” value is “promoted microtubule polymerization in a concentration-dependent manner”. Also, in [8], the “expression of Bim” value was “significantly increase”, the “expression of cleaved PARP” value is recorded as “significantly increase”, the “level of cyclin B1 protein” value was “significantly increased” and the “level of securin protein” value was “significantly increased”. The Cdc20 protein level result in assay [8] was “no effect”. In the assay on Hela [9], this compound displayed an IC50 of 0.06 ± 0.02 µM. Also, the apoptotic rates entry with Hela cells [11] was “increased in a concentration-dependent way”.

On to `Nc1nc(F)nc2c1ncn2[C@H](NC(=O)OCCN1CCOCC1)C(Cl)(Cl)Cl` [Compound 9f, reference compound], for which the IC50 with Mda-mb-231 is 1.4 ± 0.22 µM; in the assay with Mcf-7 [5], 0.61 ± 0.12 µM; in the assay with Hepg2 [6] it was 0.41 ± 0.36 µM; in the assay on Hela [2] it was 0.3 ± 0.2 µM; in the assay with Hela [9] it was 0.1 ± 0.02 µM. Moreover, the “effect on Cdc20 and microtubules” value in the assay on tubulin [12] was “dual inhibitory effects of Cdc20 and microtubules”.
